Each structure is given as a SMILES string.

This is an account of results in patent publication US9914730B2, “Azaquinazoline inhibitors of Atypical protein Kinase C” (Ignyta, Inc., priority 2012, dated 2018).

The experiment concerns the target T1, full-length human PKCι (Homo sapiens, UniProt P41743).
T1 construct: Recombinant, full-length human PKCι expressed in Sf21 insect cells is also commercially available; purchased; host or cells: Sf21 insect cells
T1 sequence (P41743 1-596): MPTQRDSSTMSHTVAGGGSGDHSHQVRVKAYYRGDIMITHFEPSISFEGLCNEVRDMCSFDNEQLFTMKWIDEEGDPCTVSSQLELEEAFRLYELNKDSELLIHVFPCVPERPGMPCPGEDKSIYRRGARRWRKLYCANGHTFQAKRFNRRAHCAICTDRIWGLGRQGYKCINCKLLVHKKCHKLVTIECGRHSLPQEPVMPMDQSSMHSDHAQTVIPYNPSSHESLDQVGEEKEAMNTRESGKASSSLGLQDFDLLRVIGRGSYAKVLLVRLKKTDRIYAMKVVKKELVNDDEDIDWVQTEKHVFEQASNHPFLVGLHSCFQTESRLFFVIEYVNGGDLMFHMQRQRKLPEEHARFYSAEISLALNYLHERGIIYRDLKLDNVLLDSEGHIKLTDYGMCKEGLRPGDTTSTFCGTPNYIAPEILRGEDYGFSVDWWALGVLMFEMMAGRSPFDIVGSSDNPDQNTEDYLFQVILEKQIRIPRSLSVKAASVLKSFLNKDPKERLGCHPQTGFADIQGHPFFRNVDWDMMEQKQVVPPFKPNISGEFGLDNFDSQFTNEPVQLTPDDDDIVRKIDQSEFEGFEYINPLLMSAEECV
The experiment is described as follows: PKCι IC50 IMAP assay, full-length PKCι at 150 μM ATP. Type of experiment: biochemical. To be noted: read-out: IC50 in IMAP assay against full length PKCi at 150 μM ATP. In short, it runs like this: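 IMAP fluorescence polarisation (ex 485/em 530 nm) read-out; % inhibition set from no-compound (0%) and no-enzyme (100%) controls, IC50 from dose-response curve fit. Sf21-expressed full-length enzyme ~15 pM, 100 nM FAM peptide, ATP 150 μM (5× KM^APP), 60 min at RT.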
As to `Oc1nc(-c2ccnc(Nc3cccc(CN4CCNCC4)c3)c2)nc2cnccc12` [Example 498, 2-[2-(3-piperazin-1-ylmethyl-phenylamino)-pyridin-4-yl]-pyrido[3,4-d]pyrimidin-4-ol], the IC50 (as a rule, the concentration that gives 50% inhibition) lay in the range of 10000 to 40000 nM. Turning to `Oc1nc(-c2ccnc(Nc3cnn(CC4CCNCC4)c3)c2)nc2cnccc12` [Example 499, 2-[2-(1-Piperidin-4-ylmethyl-1H-pyrazol-4-ylamino)-pyridin-4-yl]-pyrido[3,4-d]pyrimidin-4-ol], the IC50 was in the range of 10000 to 40000 nM. The figure for `CNc1nc(-c2ccnc(Nc3cccc(N4CCNCC4)c3)c2)nc2cncc(OC)c12` [Example 500, {5-Methoxy-2-[2-(3-piperazin-1-yl-phenylamino)-pyridin-4-yl]-pyrido[3,4-d]pyrimidin-4-yl}-methyl-amine] is 100 to 1000 nM; for `CNc1nc(-c2ccnc(Nc3ccc(OCCN4CCCC4)cc3)c2)nc2cncc(OC)c12` [Example 501, (5-Methoxy-2-{2-[4-(2-pyrrolidin-1-yl-ethoxy)-phenylamino]-pyridin-4-yl}-pyrido[3,4-d]pyrimidin-4-yl)-methyl-amine] it is 10000 to 40000 nM; for `CNc1nc(-c2ccnc(Nc3cccc(C4CCNCC4)c3)c2)nc2cncc(OC)c12` [Example 502, {5-Methoxy-2-[2-(3-piperidin-4-yl-phenylamino)-pyridin-4-yl]-pyrido[3,4-d]pyrimidin-4-yl}-methyl-amine] it is 1000 to 10000 nM. In the case of `COc1cncc2nc(-c3ccnc(Nc4cccc(N5CCNCC5)c4)c3)ncc12` [Example 503, [4-(5-Methoxy-pyrido[3,4-d]pyrimidin-2-yl)-pyridin-2-yl]-(3-piperazin-1-yl-phenyl)-amine], the IC50 was 1000 to 10000 nM. The figure for `Cc1ccc(F)c(Nc2cc(-c3nc(N4CCNCC4)c4c(C5CC5)cncc4n3)ccn2)c1` [Example 504, [4-(5-Cyclopropyl-4-piperazin-1-yl-pyrido[3,4-d]pyrimidin-2-yl)-pyridin-2-yl]-(2-fluoro-5-methyl-phenyl)-amine] is below 100 nM; for `Cc1ccc(C)c(Nc2cc(-c3nc(N4CCNCC4)c4c(C5CC5)cncc4n3)ccn2)c1` [Example 505, [4-(5-Cyclopropyl-4-piperazin-1-yl-pyrido[3,4-d]pyrimidin-2-yl)-pyridin-2-yl]-(2,5-dimethyl-phenyl)-amine] it is below 100 nM. Regarding `N#Cc1ccc(Nc2cc(-c3nc(N4CCNCC4)c4c(C5CC5)cncc4n3)ccn2)cn1` [Example 506, 5-[4-(5-Cyclopropyl-4-piperazin-1-yl-pyrido[3,4-d]pyrimidin-2-yl)-pyridin-2-ylamino]-pyridine-2-carbonitrile], the IC50 fell in the range of 100 to 1000 nM. The figure for `c1cnc(Nc2cc(-c3nc(N4CCNCC4)c4c(C5CC5)cncc4n3)ccn2)cn1` [Example 507] is below 100 nM. For the molecule `FC(F)(F)C1CN(c2nc(-c3ccnc(NC4CC4)c3)nc3cncc(C4CC4)c23)CCN1` (stereo not drawn) [Example 508, Cyclopropyl-{4-[5-cyclopropyl-4-(3-trifluoromethyl-piperazin-1-yl)-pyrido[3,4-d]pyrimidin-2-yl]-pyridin-2-yl}-amine], the IC50 was below 100 nM. With `c1cc(-c2nc(N3CCNCC3)c3c(C4CC4)cncc3n2)cc(N[C@@H]2CCOC2)n1` [Example 509, [4-(5-Cyclopropyl-4-piperazin-1-yl-pyrido[3,4-d]pyrimidin-2-yl)-pyridin-2-yl]-(R)-tetrahydro-furan-3-yl-amine], the IC50 is below 100 nM.

Take `FC1(F)CCC(Nc2cc(-c3nc(N4CCNCC4)c4c(C5CC5)cncc4n3)ccn2)CC1` [Example 510, [4-(5-Cyclopropyl-4-piperazin-1-yl-pyrido[3,4-d]pyrimidin-2-yl)-pyridin-2-yl]-(4,4-difluoro-cyclohexyl)-amine]: the IC50 was below 100 nM.

Regarding `FC[C@H]1CN(c2nc(-c3ccnc(Nc4cc(C(F)(F)F)ccn4)c3)nc3cncc(C4CC4)c23)CCN1` [Example 511, {4-[5-Cyclopropyl-4-((R)-3-fluoromethyl-piperazin-1-yl)-pyrido[3,4-d]pyrimidin-2-yl]-pyridin-2-yl}-(4-trifluoromethyl-pyridin-2-yl)-amine], the IC50 lay within 100 to 1000 nM. Take `COc1ncccc1Nc1cc(-c2nc(N3CCNCC3)c3c(C4CC4)cncc3n2)ccn1` [Example 513, [4-(5-Cyclopropyl-4-piperazin-1-yl-pyrido[3,4-d]pyrimidin-2-yl)-pyridin-2-yl]-(2-methoxy-pyridin-3-yl)-amine]: the IC50 is below 100 nM.

As to `Clc1cccc(Nc2cc(-c3nc(N4CCNCC4)c4c(C5CC5)cncc4n3)ccn2)n1` [Example 514, (6-Chloro-pyridin-2-yl)-[4-(5-cyclopropyl-4-piperazin-1-yl-pyrido[3,4-d]pyrimidin-2-yl)-pyridin-2-yl]-amine], the IC50 is below 100 nM. Consider `COc1ccccc1Nc1cc(-c2nc(N3CCNCC3)c3c(C4CC4)cncc3n2)ccn1` [Example 515, [4-(5-Cyclopropyl-4-piperazin-1-yl-pyrido[3,4-d]pyrimidin-2-yl)-pyridin-2-yl]-(2-methoxy-phenyl)-amine], for which the IC50 is below 100 nM.

For the molecule `FC(F)(F)c1ccccc1Nc1cc(-c2nc(N3CCNCC3)c3c(C4CC4)cncc3n2)ccn1` [Example 516, [4-(5-Cyclopropyl-4-piperazin-1-yl-pyrido[3,4-d]pyrimidin-2-yl)-pyridin-2-yl]-(2-trifluoromethyl-phenyl)-amine], the IC50 is below 100 nM. On to `COCc1ccccc1Nc1cc(-c2nc(N3CCNCC3)c3c(C4CC4)cncc3n2)ccn1` [Example 517, [4-(5-Cyclopropyl-4-piperazin-1-yl-pyrido[3,4-d]pyrimidin-2-yl)-pyridin-2-yl]-(2-methoxymethyl-phenyl)-amine], for which the IC50 was in the range of 100 to 1000 nM. The figure for `c1cc(-c2nc(N3CCNCC3)c3c(C4CC4)cncc3n2)cc(N[C@H]2CCOC2)n1` [Example 518, [4-(5-Cyclopropyl-4-piperazin-1-yl-pyrido[3,4-d]pyrimidin-2-yl)-pyridin-2-yl]-(S)-tetrahydro-furan-3-yl-amine] is below 100 nM; for `N#Cc1ccccc1Nc1cc(-c2nc(N3CCNCC3)c3c(C4CC4)cncc3n2)ccn1` [Example 519, 2-[4-(5-Cyclopropyl-4-piperazin-1-yl-pyrido[3,4-d]pyrimidin-2-yl)-pyridin-2-ylamino]-benzonitrile] it is 100 to 1000 nM.

With `CC(C)(C)Nc1cc(-c2nc(N3CCNCC3)c3c(C4CC4)cncc3n2)ccn1` [Example 520, tert-Butyl-[4-(5-cyclopropyl-4-piperazin-1-yl-pyrido[3,4-d]pyrimidin-2-yl)-pyridin-2-yl]-amine], the IC50 is below 100 nM. Turning to `Fc1ccc(F)c(Nc2cc(-c3nc(N4CCNCC4)c4c(C5CC5)cncc4n3)ccn2)c1` [Example 521, [4-(5-Cyclopropyl-4-piperazin-1-yl-pyrido[3,4-d]pyrimidin-2-yl)-pyridin-2-yl]-(2,5-difluoro-phenyl)-amine], the IC50 is below 100 nM. As to `Fc1ccc(C(F)(F)F)cc1Nc1cc(-c2nc(N3CCNCC3)c3c(C4CC4)cncc3n2)ccn1` [Example 522, [4-(5-Cyclopropyl-4-piperazin-1-yl-pyrido[3,4-d]pyrimidin-2-yl)-pyridin-2-yl]-(2-fluoro-5-trifluoromethyl-phenyl)-amine], the IC50 was in the range of 100 to 1000 nM. In the case of `Cc1ccc(F)cc1Nc1cc(-c2nc(N3CCNCC3)c3c(C4CC4)cncc3n2)ccn1` [Example 523, [4-(5-Cyclopropyl-4-piperazin-1-yl-pyrido[3,4-d]pyrimidin-2-yl)-pyridin-2-yl]-(5-fluoro-2-methyl-phenyl)-amine], the IC50 was below 100 nM.

As to `Cc1ccc(C#N)cc1Nc1cc(-c2nc(N3CCNCC3)c3c(C4CC4)cncc3n2)ccn1` [Example 524, 3-[4-(5-Cyclopropyl-4-piperazin-1-yl-pyrido[3,4-d]pyrimidin-2-yl)-pyridin-2-ylamino]-4-methyl-benzonitrile], the IC50 is below 100 nM.

Consider `O=C1OCC2CN(c3nc(-c4ccnc(Nc5ccccc5)c4)nc4cncc(C5CC5)c34)CCN12` (stereo not drawn) [Example 525, 7-[5-Cyclopropyl-2-(2-phenylamino-pyridin-4-yl)-pyrido[3,4-d]pyrimidin-4-yl]-hexahydro-oxazolo[3,4-a]pyrazin-3-one], for which the IC50 was in the range of 100 to 1000 nM. Consider `Fc1cccnc1Nc1cc(-c2nc(N3CCNCC3)c3c(C4CC4)cncc3n2)ccn1` [Example 526, [4-(5-Cyclopropyl-4-piperazin-1-yl-pyrido[3,4-d]pyrimidin-2-yl)-pyridin-2-yl]-(3-fluoro-pyridin-2-yl)-amine], for which the IC50 is below 100 nM.

As for `Cc1cccc(Cl)c1Nc1cc(-c2nc(N3CCNCC3)c3c(C4CC4)cncc3n2)ccn1` [Example 527, (2-Chloro-6-methyl-phenyl)-[4-(5-cyclopropyl-4-piperazin-1-yl-pyrido[3,4-d]pyrimidin-2-yl)-pyridin-2-yl]-amine], the concentration for half-maximal inhibition (IC50) was below 100 nM. `N#Cc1ccc(F)c(Nc2cc(-c3nc(N4CCNCC4)c4c(C5CC5)cncc4n3)ccn2)c1` [Example 528, 3-[4-(5-Cyclopropyl-4-piperazin-1-yl-pyrido[3,4-d]pyrimidin-2-yl)-pyridin-2-ylamino]-4-fluoro-benzonitrile]: the half-maximal inhibitory concentration (IC50) is 100 to 1000 nM.
